Here are results for six compounds from patent US5942529A, “Benzisothiazolyl-substituted aminomethylchromans” (Bayer Aktiengesellschaft, priority 1995, dated 1999).

Each structure is given as a SMILES string. Counter-ions that a name gives are not always drawn.

One test addresses 5-HT1 receptor. The test can be described thus: Affinity for the 5-HT1 receptor (3H-serotonin binding, calf hippocampus membranes). The following applies: calf hippocampus membrane preparations. How it is done:
The values indicated are data which were determined from receptor binding studies using calf hippocampus membrane preparations. The radiolabelled ligand used for this purpose was ^3 H-serotonin. In the binding tests under 1) and 2), IC50 values are determined which indicate at which concentration of test substance 50% of the binding of the radioligand is displaced. Taking into account the dissociation constants and the concentration of radioligand, the inhibition constants Ki are calculated from this.

The next test has as its target T1, 5-HT1A receptors (Bos taurus, UniProt F6Q2H9).
T1 construct: measured in calf hippocampus membranes; from tissue; host or cells: calf hippocampus membranes
T1 sequence (F6Q2H9 1-422): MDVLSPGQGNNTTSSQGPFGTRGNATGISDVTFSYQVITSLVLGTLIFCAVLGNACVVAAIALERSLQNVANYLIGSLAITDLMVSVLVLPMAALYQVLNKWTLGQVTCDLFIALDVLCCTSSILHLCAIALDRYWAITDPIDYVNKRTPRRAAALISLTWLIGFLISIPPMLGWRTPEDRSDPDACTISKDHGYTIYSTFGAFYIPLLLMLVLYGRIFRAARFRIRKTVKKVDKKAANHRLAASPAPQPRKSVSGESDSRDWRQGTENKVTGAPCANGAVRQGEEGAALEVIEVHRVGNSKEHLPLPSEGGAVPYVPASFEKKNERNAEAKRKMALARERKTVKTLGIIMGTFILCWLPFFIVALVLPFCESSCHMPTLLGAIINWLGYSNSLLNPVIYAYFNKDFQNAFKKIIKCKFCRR
The test is described as follows: Affinity for the 5-HT1A receptor (3H-ipsapirone binding, calf hippocampus membranes). How it is done: 2.) Affinity for the 5-HT1A receptor [W. U. Dompert et al., Naunyn-Schmiedeberg's Arch Pharmacol. (1985), 328, 467-470].
In this test, the binding of ^3 H-ipsapirone to 5-HT1A receptors is measured in calf hippocampus membranes.
In the binding tests under 1) and 2), IC50 values are determined which indicate at which concentration of test substance 50% of the binding of the radioligand is displaced. Taking into account the dissociation constants and the concentration of radioligand, the inhibition constants Ki are calculated from this.

Test [1] concerns permanent focal cerebral ischaemia (MCA-O). The test is described as follows: Permanent focal cerebral ischaemia (middle cerebral artery occlusion, MCA-O) in rats. The test is classed as in vivo. The following applies: rat, continuous infusion 4 hours after occlusion, assessed 7 days after operation. The text has this: Animal model: permanent focal cerebral ischaemia ("middle cerebral artery occlusion"=MCA-O). MCA occlusion in rodents is a widely accepted animal model of stroke. Reference: Bederson, J. B. et al., Stroke, 17:472-476 (1986).
In order to produce permanent focal cerebral ischaemia, the left medial cerebral artery in rats is occluded by electrocoagulation. The resulting infarct volume in cortical (subcortical) regions which are supplied by the medial cerebral artery is used as a measure of the extent of the stroke-induced neuronal damage. Administration of substance: after occlusion as a continuous i.v. infusion (4 hours) of the test substance, beginning directly after operation. The animals are sacrificed for assessment 7 days after operation.

What is called Ki is a dissociation constant, usually derived from enzyme kinetics or from competition with a known ligand. `CC(C)(Cl)COc1cccc2c1OC(CNCCCCN1C(=O)c3ccccc3S1(=O)=O)CC2` (racemic) [Example 4] registered a Ki at 5-HT1 receptor of 2.8 nM.

On to `CC1(C)Cc2ccc3c(c2O1)OC(CNCCCCN1C(=O)c2ccccc2S1(=O)=O)CC3` (racemic) [Example 5], for which the affinity at 5-HT1 receptor, expressed as Ki, was 0.5 nM.

For the compound `CC(C)Oc1cccc2c1OC(CNCCCCN1C(=O)c3ccccc3S1(=O)=O)CC2` (single isomer, unassigned) [Example 2], the affinity at 5-HT1A receptors, expressed as Ki, was 0.5 nM. For the same compound, the “% Reduction of the infarct volume” value in test [1] (0.001 mg/kg i.v.) was found to be 36%; in test [1] (0.01 mg/kg i.v.), 48%; in test [1] (0.1 mg/kg i.v.) it was 32%.

On 5-HT1A receptors, `CC(C)(Cl)COc1cccc2c1OC(CNCCCCN1C(=O)c3ccccc3S1(=O)=O)CC2` (single isomer, unassigned) [Example 3] had a Ki of 1.8 nM. Also, the entries for the “% Reduction of the infarct volume” value in test [1] (0.001 mg/kg i.v.), in test [1] (0.003 mg/kg i.v.) and in test [1] (0.01 mg/kg i.v.) were 37%, 34% and 47%, respectively.

Compound `CC1(C)Cc2ccc3c(c2O1)OC(CNCCCCN1C(=O)c2ccccc2S1(=O)=O)CC3` (single isomer, unassigned) [Example 6] gave a Ki on 5-HT1A receptors of 0.9 nM. The “% Reduction of the infarct volume” value in test [1] (0.001 mg/kg i.v.) is listed as 41%; in test [1] (0.01 mg/kg i.v.), 41%; in test [1] (0.1 mg/kg i.v.) it was 38%.

On to `CC(C)Oc1cccc2c1OC(CNCCCCN1C(=O)c3ccccc3S1(=O)=O)CC2` (stereo not drawn) [Example 1, 2-(N-(4-(1,1-Dioxido-3-oxo-2,3-dihydro-benzisothiazol-2-yl)butyl)amino)methyl-8-isopropoxy-chroman oxalate], for which, at 5-HT1 receptor, the Ki is 1.1 nM.
